Measurements taken from paper doi:10.1101/2022.11.01.514793v1 (biorxiv, 2022).

Target: T1, AdgB (Variovorax paradoxus, UniProt T1X8R6)
T1 sequence (T1X8R6 28-388 limits assumed): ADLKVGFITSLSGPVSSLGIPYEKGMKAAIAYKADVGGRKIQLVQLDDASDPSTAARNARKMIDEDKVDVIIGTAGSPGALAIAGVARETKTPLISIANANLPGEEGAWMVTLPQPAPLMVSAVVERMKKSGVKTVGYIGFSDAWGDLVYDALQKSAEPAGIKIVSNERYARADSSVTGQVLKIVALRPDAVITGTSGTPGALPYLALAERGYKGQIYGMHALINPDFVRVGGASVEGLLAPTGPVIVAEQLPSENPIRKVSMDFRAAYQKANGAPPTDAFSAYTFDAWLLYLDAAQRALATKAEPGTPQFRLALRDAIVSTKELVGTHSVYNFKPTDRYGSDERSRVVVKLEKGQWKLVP
Assay: isothermal titration calorimetry
Assay type: binding

Compound | Kd [µM]
O=C(O)Cc1c[nH]c2cccc(Cl)c12 [4-Cl-IAA] | 8.4
O=C(O)CCCc1c[nH]c2ccccc12 [IBA] | 25
O=C(O)CCc1c[nH]c2ccccc12 [IPA] | 1.6
O=C(O)Cc1cccc2ccccc12 [NAA] | 20
